Measured values reported in ChEMBL document CHEMBL1201862, “PubChem BioAssay data set” (2004).
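Values below derive from 48-hour exposures of cells grown in 96-well plates, with endpoints linearly interpolated between the two concentrations bracketing the appropriate inhibition level. GI50: concentration for 50% inhibition of growth.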 The source made the active and inactive calls. Cut-off read from the data, not from the text of the source: active = GI50 up to about 1.1 µM and inactive = higher.

Key:
Experiment in all cases: inhibition of tumour cell growth, NCI panel, 48 h
A498 = tested on: A498
ACHN = tested on: ACHN
BT-549 = tested on: BT-549
HT-29 = tested on: HT-29
LOX IMVI = tested on: LOX IMVI
M14 = tested on: M14
Malme-3M = tested on: Malme-3M
NCI-H23 = tested on: NCI-H23
OVCAR-3 = tested on: OVCAR-3
RXF 393 = tested on: RXF 393
SF-295 = tested on: SF-295
SF-539 = tested on: SF-539
SW-620 = tested on: SW-620
TK-10 = tested on: TK-10
U-251 = tested on: U-251
UACC-257 = tested on: UACC-257
UACC-62 = tested on: UACC-62
CCRF-CEM = tested on: CCRF-CEM
RPMI-8226 = tested on: RPMI-8226
SK-MEL-28 = tested on: SK-MEL-28

Compound: O=Cc1cccc2ccc3ccccc3c12
- GI50 (A498): 22.4 µM (inactive)
- GI50 (ACHN): 13.5 µM (inactive)
- GI50 (BT-549): 30.5 µM (inactive)
- GI50 (HT-29): 12.2 µM (inactive)
- GI50 (LOX IMVI): 11.3 µM (inactive)
- GI50 (M14): 20 µM (inactive)
- GI50 (Malme-3M): 16.4 µM (inactive)
- GI50 (NCI-H23): 25.1 µM (inactive)
- GI50 (OVCAR-3): 12.9 µM (inactive)
- GI50 (RXF 393): 16.3 µM (inactive)
- GI50 (SF-295): 17.1 µM (inactive)
- GI50 (SF-539): 5.86 µM (inactive)
- GI50 (SW-620): 10.4 µM (inactive)
- GI50 (TK-10): 14.3 µM (inactive)
- GI50 (U-251): 5.93 µM (inactive)
- GI50 (UACC-257): 32 µM (inactive)
- GI50 (UACC-62): 28.1 µM (inactive)

Compound: C=CCOCC1C2CCC3(OCCO3)C21 (stereo not drawn)
- GI50 (ACHN): > 100 µM (inactive)
- GI50 (BT-549): > 100 µM (inactive)
- GI50 (CCRF-CEM): 99.5 µM (inactive)
- GI50 (HT-29): > 100 µM (inactive)
- GI50 (LOX IMVI): > 100 µM (inactive)
- GI50 (M14): > 100 µM (inactive)
- GI50 (Malme-3M): > 100 µM (inactive)
- GI50 (NCI-H23): 48.5 µM (inactive)
- GI50 (OVCAR-3): > 100 µM (inactive)
- GI50 (RPMI-8226): > 100 µM (inactive)
- GI50 (RXF 393): > 100 µM (inactive)
- GI50 (SF-295): > 100 µM (inactive)
- GI50 (SF-539): > 100 µM (inactive)
- GI50 (SK-MEL-28): > 100 µM (inactive)
- GI50 (SW-620): > 100 µM (inactive)
- GI50 (TK-10): > 100 µM (inactive)
- GI50 (U-251): > 100 µM (inactive)
- GI50 (UACC-257): > 100 µM (inactive)
- GI50 (UACC-62): 30.1 µM (inactive)

Compound: CCOC(=O)/C(=N/Nc1ccccc1)N1C(=S)N(C)N=C(C)C=C1S
- GI50 (ACHN): > 100 µM (inactive)
- GI50 (BT-549): 76.9 µM (inactive)
- GI50 (CCRF-CEM): > 100 µM (inactive)
- GI50 (HT-29): > 100 µM (inactive)
- GI50 (M14): > 100 µM (inactive)
- GI50 (NCI-H23): 33.9 µM (inactive)
- GI50 (OVCAR-3): > 100 µM (inactive)
- GI50 (RPMI-8226): > 100 µM (inactive)
- GI50 (RXF 393): 0.465 µM (active)
- GI50 (SF-295): 28.4 µM (inactive)
- GI50 (SF-539): > 100 µM (inactive)
- GI50 (SK-MEL-28): > 100 µM (inactive)
- GI50 (SW-620): > 100 µM (inactive)
- GI50 (TK-10): 86.1 µM (inactive)
- GI50 (U-251): 20 µM (inactive)
- GI50 (UACC-257): > 100 µM (inactive)
- GI50 (UACC-62): 83.4 µM (inactive)

Compound: CC(C)OP(=O)(OC(C)C)c1ccc2c(c1)OCCOCCOCCOCCO2
- GI50 (A498): > 100 µM (inactive)
- GI50 (ACHN): > 100 µM (inactive)
- GI50 (BT-549): > 100 µM (inactive)
- GI50 (CCRF-CEM): > 100 µM (inactive)
- GI50 (HT-29): > 100 µM (inactive)
- GI50 (LOX IMVI): 95.7 µM (inactive)
- GI50 (M14): > 100 µM (inactive)
- GI50 (Malme-3M): > 100 µM (inactive)
- GI50 (NCI-H23): > 100 µM (inactive)
- GI50 (RPMI-8226): > 100 µM (inactive)
- GI50 (SF-295): > 100 µM (inactive)
- GI50 (SF-539): > 100 µM (inactive)
- GI50 (SK-MEL-28): > 100 µM (inactive)
- GI50 (SW-620): > 100 µM (inactive)
- GI50 (TK-10): > 100 µM (inactive)
- GI50 (UACC-257): > 100 µM (inactive)
- GI50 (UACC-62): > 100 µM (inactive)

Compound: CC1(c2nc3ccccc3[nH]2)CCC(CO)C(C)(C)O1 (stereo not drawn)
- GI50 (ACHN): > 100 µM (inactive)
- GI50 (BT-549): > 100 µM (inactive)
- GI50 (CCRF-CEM): > 100 µM (inactive)
- GI50 (HT-29): > 100 µM (inactive)
- GI50 (LOX IMVI): > 100 µM (inactive)
- GI50 (M14): > 100 µM (inactive)
- GI50 (Malme-3M): > 100 µM (inactive)
- GI50 (NCI-H23): > 100 µM (inactive)
- GI50 (OVCAR-3): > 100 µM (inactive)
- GI50 (RPMI-8226): > 100 µM (inactive)
- GI50 (RXF 393): > 100 µM (inactive)
- GI50 (SF-295): > 100 µM (inactive)
- GI50 (SF-539): > 100 µM (inactive)
- GI50 (SK-MEL-28): > 100 µM (inactive)
- GI50 (SW-620): > 100 µM (inactive)
- GI50 (TK-10): > 100 µM (inactive)
- GI50 (U-251): > 100 µM (inactive)
- GI50 (UACC-257): > 100 µM (inactive)
- GI50 (UACC-62): > 100 µM (inactive)

Compound: CN1CCc2c(sc3nc(S)nc(S)c23)C1
- GI50 (ACHN): > 100 µM (inactive)
- GI50 (BT-549): > 100 µM (inactive)
- GI50 (CCRF-CEM): > 100 µM (inactive)
- GI50 (HT-29): > 100 µM (inactive)
- GI50 (LOX IMVI): > 100 µM (inactive)
- GI50 (M14): > 100 µM (inactive)
- GI50 (Malme-3M): > 100 µM (inactive)
- GI50 (NCI-H23): > 100 µM (inactive)
- GI50 (OVCAR-3): > 100 µM (inactive)
- GI50 (RPMI-8226): > 100 µM (inactive)
- GI50 (RXF 393): > 100 µM (inactive)
- GI50 (SF-295): > 100 µM (inactive)
- GI50 (SF-539): > 100 µM (inactive)
- GI50 (SK-MEL-28): > 100 µM (inactive)
- GI50 (SW-620): > 100 µM (inactive)
- GI50 (TK-10): > 100 µM (inactive)
- GI50 (U-251): 72.4 µM (inactive)
- GI50 (UACC-257): > 100 µM (inactive)
- GI50 (UACC-62): > 100 µM (inactive)

Compound: COc1cccc(Nc2nc(-c3cccs3)nc3ccc(Br)cc23)c1
- GI50 (A498): > 100 µM (inactive)
- GI50 (ACHN): > 100 µM (inactive)
- GI50 (BT-549): > 100 µM (inactive)
- GI50 (CCRF-CEM): 0.0101 µM (active)
- GI50 (HT-29): > 100 µM (inactive)
- GI50 (LOX IMVI): > 100 µM (inactive)
- GI50 (M14): > 100 µM (inactive)
- GI50 (Malme-3M): 72.9 µM (inactive)
- GI50 (NCI-H23): 46 µM (inactive)
- GI50 (OVCAR-3): 36.6 µM (inactive)
- GI50 (RPMI-8226): 1.67 µM (inactive)
- GI50 (SF-295): 36.6 µM (inactive)
- GI50 (SF-539): 94.2 µM (inactive)
- GI50 (SW-620): > 100 µM (inactive)
- GI50 (TK-10): 36.7 µM (inactive)
- GI50 (U-251): 35.5 µM (inactive)
- GI50 (UACC-257): > 100 µM (inactive)
- GI50 (UACC-62): 66.2 µM (inactive)

Compound: COc1cccc(C2SC(=N)Nc3c2c(C)nn3C(=O)Cc2ccccc2)c1 (stereo not drawn)
- GI50 (A498): > 100 µM (inactive)
- GI50 (ACHN): > 100 µM (inactive)
- GI50 (BT-549): > 100 µM (inactive)
- GI50 (CCRF-CEM): > 100 µM (inactive)
- GI50 (HT-29): > 100 µM (inactive)
- GI50 (LOX IMVI): > 100 µM (inactive)
- GI50 (M14): > 100 µM (inactive)
- GI50 (Malme-3M): > 100 µM (inactive)
- GI50 (NCI-H23): > 100 µM (inactive)
- GI50 (RPMI-8226): > 100 µM (inactive)
- GI50 (SF-295): > 100 µM (inactive)
- GI50 (SF-539): > 100 µM (inactive)
- GI50 (SK-MEL-28): > 100 µM (inactive)
- GI50 (SW-620): > 100 µM (inactive)
- GI50 (TK-10): > 100 µM (inactive)
- GI50 (UACC-257): > 100 µM (inactive)
- GI50 (UACC-62): > 100 µM (inactive)
